Measured values reported in patent US10080714B2, “Peptides and their use in the treatment of hair” (Avon Products, Inc., priority 2015, dated 2018).
Square brackets hold non-standard residues; d marks the D form. Ends that are not written are not given here. Ava = NCCCCC(=O)O

Key:
Assay type in all cases: cell-based, human
KAP11 = KAP11 mRNA expression in Hair Germinal Matrix Cells (qPCR); details: for KAP 11 mRNA expression: 0.0001 wt. % peptide, 48 h, percent change in mRNA expression relative to vehicle control, normalized to GAPDH; for Effect on KAP11 mRNA expression (in words): at the concentration tested
Protocol: (§1) Hair Germinal Matrix Cells (ScienCell, Carlsbad, Calif.) were grown in 6-well tissue culture plate (1.5×10^5 cells/well) in MSCM medium supplemented with growth factors (ScienCell, Carlsbad, Calif.). Cells were incubated overnight at 37° C. and 5% CO2. Next day, cells were changed into fresh media and treated with given concentration of peptides for 48 h. After treatment, cells were washed with ice cold PBS, collected into RLT lysis buffer and RNA was extracted using RNeasy Mini Kit (Qiagen, Valencia, Calif.) following manufactures recommendations. 200 ng of RNA was used for cDNA synthesis using High Capactiy cDNA Reverse Transcription Kit (Life Technologies, Carlsbad, Calif.). 1 μL of undiluted cDNA was used per qPCR reaction. Primers used were purchased from Life technologies (Carlsbad, Calif.). Following primers were used: Keratin35 (Hs0060557_g1), KAP8 (Hs00545666_s1), KAP11 (Hs00545667_s1), P-cadherin (Hs00999925_m1). Expression was normalized to GAPDH. The conditions of q-PCR were: an incubation step at 50° C. for 2 minutes and an enzyme activation step at 95° C. for 10minutes; followed by 45 cycles of 95° C. for 30 seconds and 60° C. for 1 minute. CT value was obtained from the software of the Stratagene MX2005P.

[1] = tested on: Hair Germinal Matrix Cells; assay: Proliferation of hair matrix cells (BrdU proliferation kit); details: for Proliferation (%): 24 h treatment, percent change in cell proliferation relative to vehicle control; for Effect on Hair Germinal Matrix Cell proliferation (in words): at the concentrations tested
Protocol: Hair Germinal Matrix Cells (ScienCell, Carlsbad, Calif.) were grown in 96-well tissue culture plate (5000 cells/well) in MSCM medium supplemented with growth factors (ScienCell, Carlsbad, Calif.). Cells were incubated overnight at 37° C. and 5% CO2. Next, media were aspirated and cells were incubated in MSCM medium without growth supplement for 4-6 h, followed by treatment with given concentration of peptides for 24 h. After treatment cells were incubated with BrdU for 4 h and proliferation rate was evaluating using BrdU proliferation kit from Cell Signaling (Danvers, Mass.). The results are summarized in Table 2 below as percent change cell proliferation relative to vehicle control (peptide concentrations provided in parentheses) using the following key: 0: <10%, +:11-20%, ++:21-40%, +++:41-60%, ++++:>60%.

P-cadherin = P-cadherin mRNA expression in Hair Germinal Matrix Cells (qPCR); details: for P-cadherin mRNA expression: 0.0001 wt. % peptide, 48 h, percent change in mRNA expression relative to vehicle control, normalized to GAPDH; for Effect on levels of desmosomal protein P-cadherin (in words): at the concentration tested
Protocol: as §1

KAP8 = KAP8 mRNA expression in Hair Germinal Matrix Cells (qPCR); details: for KAP 8 mRNA expression: 0.0001 wt. % peptide, 48 h, percent change in mRNA expression relative to vehicle control, normalized to GAPDH; for Effect on Keratin Associated Protein 8 mRNA expression (in words): at the concentration tested
Protocol: as §1

Keratin35 = assay: Keratin 35 mRNA expression in Hair Germinal Matrix Cells (qPCR); details: for Keratin 35 mRNA expression: 0.0001 wt. % peptide, 48 h, percent change in mRNA expression relative to vehicle control, normalized to GAPDH; for Effect on Keratin 35 mRNA expression (in words): at the concentration tested
Protocol: as §1

Substance | KAP 11 mRNA expression (KAP11) | Effect on KAP11 mRNA expression (in words) (KAP11) | Proliferation (%) ([1]; 0.00001 wt. % peptide) | Proliferation (%) ([1]; 0.0001 wt. % peptide) | P-cadherin mRNA expression (P-cadherin) | KAP 8 mRNA expression (KAP8) | Effect on Keratin Associated Protein 8 mRNA expression (in words) (KAP8) | Keratin 35 mRNA expression (Keratin35) | Effect on Keratin 35 mRNA expression (in words) (Keratin35) | Effect on levels of desmosomal protein P-cadherin (in words) (P-cadherin) | Effect on Hair Germinal Matrix Cell proliferation (in words) [1]
K-Ava-PVGK: K-Ava-derivative of tripeptide PVG; Ava = amino valeric acid (K[Ava]PVGK) | +++ (+++: 41-60%) | effective in upregulating | 0 (0: <10%) | 0 (0: <10%) | 0 (0; <10%) | ++++ (++++: >60%) | effective in upregulating | +++ (+++: 41-60%) | effective in upregulating |  | 
K-Ava-YNTK: K-Ava-derivative of tripeptide YNT; Ava = amino valeric acid (K[Ava]YNTK) | 0 (0; <10%) | not effective | 0 (0: <10%) | 0 (0: <10%) | +++ (+++: 41-60%) | 0 (0; <10%) | not effective | 0 (0; <10%) | not effective | effect was enhanced | 
PVG: tripeptide of the amino acid sequence PVG | 0 (0; <10%) |  | 0 (0: <10%) | + (+:11-20%) | 0 (0; <10%) | ++++ (++++: >60%) | effectively increase | 0 (0; <10%) |  |  | effectively increase
YNT: tripeptide of the amino acid sequence YNT | ++++ (++++: >60%) |  | 0 (0: <10%) | ++ (++:21-40%) | + (+: 11-20%) | ++++ (++++: >60%) | effectively increase | 0 (0; <10%) |  | effective in boosting | effectively increase
